Patent publication US9770445B2, “Sulfoximine substituted 5-fluoro-N-(pyridin-2-yl)pyridin-2-amine derivatives and their use as CDK9 kinase inhibitors” (BAYER PHARMA AKTIENGESELLSCHAFT, priority 2013, dated 2017)

What was measured:
CDK2/CycE = biological target: T1, CDK2/CycE (Homo sapiens, UniProt P24941); test: CDK2/CycE kinase assay (Method 2, TR-FRET); assay type: biochemical; conditions: Method 2, 10 μM ATP
T1 construct: GST; purchased ProQinase GmbH (Freiburg, Germany); host or cells: insect cells (Sf9)
Source text: 2. CDK2/CycE Kinase Assay:
CDK2/CycE-inhibitory activity of compounds of the present invention was quantified employing the CDK2/CycE TR-FRET assay as described in the following paragraphs:
Recombinant fusion proteins of GST and human CDK2 and of GST and human CycE, expressed in insect cells (Sf9) and purified by Glutathion-Sepharose affinity chromatography, were purchased from ProQinase GmbH (Freiburg, Germany). As substrate for the kinase reaction biotinylated peptide biotin-Ttds-YISPLKSPYKISEG (C-terminus in amid form) was used which can be purchased e.g. form the company JERINI Peptide Technologies (Berlin, Germany).
For the assay 50 nl of a 100 fold concentrated solution of the test compound in DMSO was pipetted into a black low volume 384 well microtiter plate (Greiner Bio-One, Frickenhausen, Germany), 2 μl of a solution of CDK2/CycE in aqueous assay buffer [50 mM Tris/HCl pH 8.0, 10 mM MgCl2, 1.0 mM dithiothreitol, 0.1 mM sodium ortho-vanadate, 0.01% (v/v) Nonidet-P40 (Sigma)] were added and the mixture was incubated for 15 min at 22° C. to allow pre-binding of the test compounds to the enzyme before the start of the kinase reaction. Then the kinase reaction was started by the addition of 3 μl of a solution of adenosine-tri-phosphate (ATP, 16.7 μM=>final conc. in the 5 μl assay volume is 10 μM) and substrate (1.25 μM=>final conc. in the 5 μl assay volume is 0.75 μM) in assay buffer and the resulting mixture was incubated for a reaction time of 25 min at 22° C. The concentration of CDK2/CycE was adjusted depending of the activity of the enzyme lot and was chosen appropriate to have the assay in the linear range, typical concentrations were in the range of 130 ng/mL. The reaction was stopped by the addition of 5 μl of a solution of TR-FRET detection reagents (0.2 μM streptavidine-XL665 [Cisbio Bioassays, Codolet, France] and 1 nM anti-RB(pSer807/pSer811)-antibody from BD Pharmingen [#558389] and 1.2 nM LANCE EU-W1024 labeled anti-mouse IgG antibody [Perkin-Elmer, product no. AD0077]) in an aqueous EDTA-solution (100 mM EDTA, 0.2% (w/v) bovine serum albumin in 100 mM HEPES/NaOH pH 7.0).
(§1) The resulting mixture was incubated 1 h at 22° C. to allow the formation of complex between the phosphorylated biotinylated peptide and the detection reagents. Subsequently the amount of phosphorylated substrate was evaluated by measurement of the resonance energy transfer from the Eu-chelate to the streptavidine-XL. Therefore, the fluorescence emissions at 620 nm and 665 nm after excitation at 350 nm was measured in a TR-FRET reader, e.g. a Rubystar (BMG Labtechnologies, Offenburg, Germany) or a Viewlux (Perkin-Elmer). The ratio of the emissions at 665 nm and at […] was taken as the measure for the amount of phosphorylated substrate. The data were normalised (enzyme reaction without inhibitor=0% inhibition, all other assay components but no enzyme=100% inhibition).

CDK9/CycT1 = biological target: T2, CDK9/CycT1 (Homo sapiens, UniProt P50750); test: CDK9/CycT1 high ATP kinase assay (Method 1b, TR-FRET); assay type: biochemical; conditions: 2 mM ATP
T2 construct: Recombinant full-length His-tagged human CDK9 and CycT1; His; purchased Invitrogen PV4131; host or cells: insect cells
Protocol: 1b. CDK9/CyeT1 High ATP Kinase Assay
CDK9/CycT1-inhibitory activity of compounds of the present invention at a high ATP concentration after preincubation of enzyme and test compounds was quantified employing the CDK9/CycT1 TR-FRET assay as described in the following paragraphs.
Recombinant full-length His-tagged human CDK9 and CycT1, expressed in insect cells and purified by Ni-NTA affinity chromatography, were purchase from Invitrogen (Cat. No PV4131). As substrate for the kinase reaction biotinylated peptide biotin-Ttds-YISPLKSPYKISEG (C-terminus in amid form) was used which can be purchased e.g. form the company JERINI peptide technologies (Berlin, Germany). For the assay 50 nl of a 100 fold concentrated solution of the test compound in DMSO was pipetted into a black low volume 384 well microtiter plate (Greiner Bio-One, Frickenhausen, Germany), 2 μl of a solution of CDK9/CycT1 in aqueous assay buffer [50 mM Tris/HCl pH 8.0, 10 mM MgCl2, 1.0 mM dithiothreitol, 0.1 mM sodium ortho-vanadate, 0.01% (v/v) Nonidet-P40 (Sigma)] were added and the mixture was incubated for […] at 22° C. to allow pre-binding of the test compounds to the enzyme before the start of the kinase reaction. Then the kinase reaction was started by the addition of 3 μl of a solution of adenosine-tri-phosphate (ATP, 3.3 mM=>final conc. in the 5 μl assay volume is 2 mM) and substrate (1.67 μM=>final conc. in the 5 μl assay volume is 1 μM) in assay buffer and the resulting mixture was incubated for a reaction time of […] at 22° C. The concentration of CDK9/CycT1 was adjusted depending of the activity of the enzyme lot and was chosen appropriate to have the assay in the linear range, typical concentrations were in the range of 0.5 μg/mL The reaction was stopped by the addition of 5 μl of a solution of TR-FRET detection reagents (0.2 μM streptavidine-XL665 [Cisbio Bioassays, Codolet, France] and 1 nM anti-RB(pSer807/pSer811)-antibody from BD Pharmingen [#558389] and 1.2 nM LANCE EU-W1024 labeled anti-mouse IgG antibody [Perkin-Elmer, product no. AD0077]) in an aqueous EDTA-solution (100 mM EDTA, 0.2% (w/v) bovine serum albumin in 100 mM HEPES/NaOH pH 7.0).
as §1, with “HTRF” for “TR-FRET”

T2 sequence (P50750 whole entry): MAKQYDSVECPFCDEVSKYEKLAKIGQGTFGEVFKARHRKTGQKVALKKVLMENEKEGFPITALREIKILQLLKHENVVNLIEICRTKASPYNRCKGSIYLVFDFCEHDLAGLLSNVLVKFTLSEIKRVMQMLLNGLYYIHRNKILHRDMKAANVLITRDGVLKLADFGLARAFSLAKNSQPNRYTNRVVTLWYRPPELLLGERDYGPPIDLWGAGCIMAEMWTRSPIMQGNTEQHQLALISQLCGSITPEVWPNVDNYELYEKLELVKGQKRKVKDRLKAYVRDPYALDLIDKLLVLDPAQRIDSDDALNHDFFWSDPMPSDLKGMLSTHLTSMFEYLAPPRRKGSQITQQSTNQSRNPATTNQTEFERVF
T2 sequence (O60563 whole entry partner): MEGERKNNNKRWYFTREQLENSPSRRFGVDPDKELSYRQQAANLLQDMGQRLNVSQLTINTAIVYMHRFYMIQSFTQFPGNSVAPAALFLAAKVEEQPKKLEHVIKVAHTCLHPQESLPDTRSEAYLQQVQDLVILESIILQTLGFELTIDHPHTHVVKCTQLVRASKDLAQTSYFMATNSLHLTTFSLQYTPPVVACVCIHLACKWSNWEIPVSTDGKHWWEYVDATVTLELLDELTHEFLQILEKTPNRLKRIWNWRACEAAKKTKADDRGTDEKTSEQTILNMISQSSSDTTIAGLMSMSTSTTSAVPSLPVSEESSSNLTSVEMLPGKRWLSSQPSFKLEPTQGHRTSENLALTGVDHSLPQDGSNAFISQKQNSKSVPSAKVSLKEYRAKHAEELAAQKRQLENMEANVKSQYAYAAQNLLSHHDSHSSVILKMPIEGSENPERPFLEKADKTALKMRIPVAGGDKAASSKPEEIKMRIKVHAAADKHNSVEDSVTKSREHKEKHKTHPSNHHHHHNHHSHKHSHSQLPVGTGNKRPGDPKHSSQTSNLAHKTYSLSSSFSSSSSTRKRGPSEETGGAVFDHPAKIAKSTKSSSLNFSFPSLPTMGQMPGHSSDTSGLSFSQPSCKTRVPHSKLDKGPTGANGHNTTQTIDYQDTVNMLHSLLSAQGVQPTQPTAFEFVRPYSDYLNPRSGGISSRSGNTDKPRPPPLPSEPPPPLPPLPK

Row | IC50 (CDK2/CycE) | IC50 (CDK9/CycT1) | SMILES
1 | 39 nM | 1.3 nM | Cc1cc(CS(C)(=N)=O)cc(Nc2cc(-c3ccc(F)c4ccoc34)c(F)cn2)n1 (racemic) [Example 7, (rac)-5-Fluoro-4-(4-fluoro-1-benzofuran-7-yl)-N-{6-methyl-4-[(S-methylsulfonimidoyl)-methyl]pyridin-2-yl}pyridin-2-amine]
2 | 14 nM | 1.3 nM | CCc1cc(CS(C)(=N)=O)cc(Nc2cc(-c3ccc(F)c4ccoc34)c(F)cn2)n1 (racemic) [Example 8, (rac)-N-{6-Ethyl-4-[(S-methylsulfonimidoyl)methyl]pyridin-2-yl}-5-fluoro-4-(4-fluoro-1-benzofuran-7-yl)pyridin-2-amine]
3 | 146 nM | 1.6 nM | CS(=O)(Cc1ccnc(Nc2cc(-c3ccc(F)c4ccoc34)c(F)cn2)c1)=NC#N (racemic) [Example 9, (rac)-{[(2-{[5-fluoro-4-(4-fluoro-1-benzofuran-7-yl)pyridin-2-yl]amino}pyridin-4-yl)methyl](methyl)oxido-λ^6-sulfanylidene}cyanamide]
4 | 166 nM | 2.3 nM | CC(=O)N=S(C)(=O)Cc1ccnc(Nc2cc(-c3ccc(F)c4ccoc34)c(F)cn2)c1 (racemic) [Example 10, (rac)-N-{[(2-{[5-fluoro-4-(4-fluoro-1-benzofuran-7-yl)pyridin-2-yl]amino}pyridin-4-yl)methyl](methyl)oxido-λ^6-sulfanylidene}acetamide]
5 | 138 nM | 2 nM | CCOC(=O)N=S(C)(=O)Cc1ccnc(Nc2cc(-c3ccc(F)c4ccoc34)c(F)cn2)c1 (racemic) [Example 11, (rac)-Ethyl {[(2-{[5-fluoro-4-(4-fluoro-1-benzofuran-7-yl)pyridin-2-yl]amino}pyridin-4-yl)methyl](methyl)oxido-λ^6-sulfanylidene}carbamate]
6 | 113 nM | 1.9 nM | CCNC(=O)N=S(C)(=O)Cc1ccnc(Nc2cc(-c3ccc(F)c4ccoc34)c(F)cn2)c1 (racemic) [Example 12, (rac)-1-Ethyl-3-{[(2-{[5-fluoro-4-(4-fluoro-1-benzofuran-7-yl)pyridin-2-yl]amino}pyridin-4-yl)methyl](methyl)oxido-λ^6-sulfanylidene}urea]
7 | 280 nM | 2.3 nM | CS(=O)(Cc1ccnc(Nc2cc(-c3ccc(F)c4ccoc34)c(F)cn2)c1)=NC(=O)NCC(F)(F)F (racemic) [Example 13, (rac)-1-{[(2-{[5-Fluoro-4-(4-fluoro-1-benzofuran-7-yl)pyridin-2-yl]amino}pyridin-4-yl)methyl](methyl)oxido-λ^6-sulfanylidene}-3-(2,2,2-trifluoroethyl)urea]

The next lines start with the compound.

Row | SMILES | IC50 (CDK2/CycE) | IC50 (CDK9/CycT1)
8 | CS(=N)(=O)Cc1cc(F)nc(Nc2cc(-c3ccc(F)c4ccoc34)c(F)cn2)c1 (racemic) [Example 1, (rac)-5-Fluoro-4-(4-fluoro-1-benzofuran-7-yl)-N-{6-fluoro-4-[(S-methylsulfonimidoyl)methyl]pyridin-2-yl}pyridin-2-amine] | 42 nM | 1.5 nM
9 | CS(=O)(Cc1cc(F)nc(Nc2cc(-c3ccc(F)c4ccoc34)c(F)cn2)c1)=NC(=O)C(F)(F)F (racemic) [Example 2, (rac)-2,2,2-Trifluoro-N-{[(2-fluoro-6-{[5-fluoro-4-(4-fluoro-1-benzofuran-7-yl)pyridin-2-yl]amino}pyridin-4-yl)methyl](methyl)oxido-λ^6-sulfanylidene}acetamide] | 380 nM | 7.8 nM
10 | CS(=N)(=O)Cc1cc(Nc2cc(-c3ccc(F)c4ccoc34)c(F)cn2)nc(C(F)(F)F)c1 (racemic) [Example 3, (rac)-5-Fluoro-4-(4-fluoro-1-benzofuran-7-yl)-N-{4-[(S-methylsulfonimidoyl)methyl]-6-(trifluoromethyl)pyridin-2-yl}pyridin-2-amine] | 21 nM | 2.7 nM
11 | CS(=O)(Cc1cc(Nc2cc(-c3ccc(F)c4ccoc34)c(F)cn2)nc(C(F)(F)F)c1)=NC(=O)C(F)(F)F (racemic) [Example 4, (rac)-2,2,2-Trifluoro-N-[{[2-{[5-fluoro-4-(4-fluoro-1-benzofuran-7-yl)pyridin-2-yl]amino}-6-(trifluoromethyl)pyridin-4-yl]methyl}(methyl)oxido-λ^6-sulfanylidene]acetamide] | 110 nM | 7 nM
12 | CS(=N)(=O)Cc1ccnc(Nc2cc(-c3ccc(F)c4ccoc34)c(F)cn2)c1 (racemic) [Example 5, (rac)-5-Fluoro-4-(4-fluoro-1-benzofuran-7-yl)-N-{4-[(S-methylsulfonimidoyl)methyl]pyridin-2-yl}pyridin-2-amine] | 130 nM | 2 nM
13 | CS(=O)(Cc1ccnc(Nc2cc(-c3ccc(F)c4ccoc34)c(F)cn2)c1)=NC(=O)C(F)(F)F (racemic) [Example 6, (rac)-2,2,2-Trifluoro-N-{[(2-{[5-fluoro-4-(4-fluoro-1-benzofuran-7-yl)pyridin-2-yl]amino}pyridin-4-yl)methyl](methyl)oxido-λ^6-sulfanylidene}acetamide] | 540 nM | 6.4 nM
